Assay results reported in patent US6355669B1, “Retinoic acid agonists as preventive and therapeutic agents for nephritis” (Eisai Co., Ltd., priority 1997, dated 2002).

Experiments:
[1] = test system: human B lymphocytes; conditions: literature reports (Apfel 1992; Blomhoff 1992; Fahlman 1995); cited from earlier work
[2] = test system: mouse B lymphocytes; conditions: literature reports (Apfel 1992; Blomhoff 1992; Fahlman 1995); cited from earlier work
[3] = test system: BALB/c mouse spleen cells; experiment: In vitro production of antibody (total IgG) in LPS-stimulated mouse spleen cells; type: cell-based; conditions: for Total IgG: LPS 5 μg/ml, 5 days
Method: Spleen cells from 7-week-old female BALB/c mouse were cultured at 37° C. in the presence of 5% CO2 for 5 days along with 5 μg/ml lipopolysaccharide (LPS) in RPMI 1640 medium containing 10% fetal bovine serum. After culture, the total amount of IgG in the supernatant was quantified by specific ELISA techniques.

[4] = test system: accelerated Masugi nephritis; experiment: Rat model with accelerated Masugi nephritis (proteins excreted in urine for 24 hours); type: in vivo, Sprague-Dawley strain rats; conditions: dose 0.3 mg/kg, oral once every day; compared with the control group; 0.3 mg/kg
Method: Sprague-Dawley strain rats were immunized by subcutaneously administering rabbit γ-globulin in a dose of 4 mg/rat along with Freund's complete adjuvant into the bottoms of their both hind legs. On the 5th day after the rats were immunized, 1 ml of anti-rat glomerular basement membrane rabbit serum diluted 6- or 8-fold was administered via tail veins into the animals. On the 8th day, the rats were forced to be orally administered 8 ml sterilized water and then placed in a metabolism cage, and their urine was collected for 24 hours during which the animals were allowed neither food nor water. As the indicator of the model with accelerated Masugi nephritis, the amount of proteins excreted in urine for 24 hours was used.
(§1) The medium was administered into the control group.

[5] = test system: anti-ss DNA antibody; experiment: Mouse model with spontaneous onset of SLE: production of anti-ss DNA antibody; type: in vivo, female (NZB×NZW) F1 mice; conditions: for inhibition of production of anti-ss DNA antibody (in words): 0.03 mg/kg oral, after 16 weeks of administration
Method: (§2) In this experiment, female (NZB×NZW) F1 mice were used. Administration of each test compound was initiated at the age of 16 weeks, and blood was collected at predetermined intervals from the orbital venous plexus of the animals under anesthesia with ether and examined for anti-DNA (single-stranded chain: ss, double stranded chain: ds) antibody titer in serum. Further, urine was collected and measured for urine protein.
as §1

[6] = test system: anti-dinitrophenyl (DNP) IgG2a antibody titer; experiment: Mouse model producing antibody (anti-DNP IgG2a antibody titer in serum, ELISA); type: in vivo, BALB/c mice; conditions: dose 0.1 mg/kg oral once every day for 10 days; 10th day after immunization
Method: BALB/c mice were immunized by administering dinitrophenylated keyhole limpet hemocyanin (DNP-KLH) as antigen intraperitoneally into them in a dose of 100 μg/mouse along with Freund's complete adjuvant. On the 10th day after the day on which the mice were immunized, blood was collected from the orbital venous plexus of the animals under anesthesia with ether and examined for anti-dintrophenyl (DNP) IgG2a antibody titer in serum by the ELISA method.
The test compounds B, E, F, G and H were suspended in 0.5% aqueous methyl cellulose solution and orally administered into the animals once every day for 10 days from the day when the animals were immunized with DNP-KLH. The medium was administered into the control group.

[7] = test system: anti-rabbit γ-globulin IgG2a antibody titer; experiment: Rat model producing antibody (anti-rabbit γ-globulin antibody titer in serum, ELISA); type: in vivo, Sprague-Dawley strain rats; conditions: dose 0.3 mg/kg oral once every day for 14 days; 14th day after immunization
Method: Sprague-Dawley strain rats were immunized by subcutaneously administering rabbit γ-globulin in a dose of 4 mg/rat along with Freund's complete adjuvant into the bottoms of their both hind legs. On the 14th day after the rats were immunized, blood was collected from their tail veins and examined for anti-rabbit γ-globulin antibody titer in serum by the ELISA method.
The test compounds A, B, C and D were suspended respectively in 0.5% aqueous methyl cellulose solution and orally administered once every day for 14 days from the day on which the animals were immunized with rabbit γ-globulin. The medium was administered into the control group.

[8] = test system: albuminuria in (NZB×NZW)F1 mice; experiment: Mouse model with spontaneous onset of SLE: urine protein / onset of albuminuria; type: in vivo, female (NZB×NZW) F1 mice; conditions: for Number of animals with Concentration of Urine Protein (mg/ml) <0.3 / Number of animals with Concentration of Urine Protein (mg/ml) >0.3 / Number of animals with Concentration of Urine Protein (mg/ml) >1 / Number of animals with Concentration of Urine Protein (mg/ml) >3 / Number of animals with Concentration of Urine Protein (mg/ml) >10: after 18 weeks of administration (34-week-old), 8 animals
Excerpt: as §2
The test compounds A, B and D were suspended in 0.5% aqueous methyl cellulose solution and orally administered daily once into the animals for 6 days/week for 18 weeks. The medium was administered into the control group.
The effect of each compound on the onset of albuminuria after 18 weeks of administration (in 34-week-old animals) is shown in Table 2.

[9] = test system: mouse B lymphocytes; conditions: adding RARα antagonist; Apfel 1992; cited from earlier work
[10] = test system: mouse allergic cerebrospinal meningitis; conditions: Racke et al., J. Immunol., 154, 450-458, 1995; cited from earlier work
[11] = test system: rat adjuvant arthritis; conditions: Brinckerhoff et al., Science 221, 756, 1983; cited from earlier work
[12] = test system: anti-ds DNA antibody; experiment: Mouse model with spontaneous onset of SLE: production of anti-ds DNA antibody; type: in vivo, female (NZB×NZW) F1 mice
Method: as §2, §1

[13] = test system: anti-collagen antibody titer; conditions: rat model with collagen arthritis; Kuwabara et al., FEBS Letters 1996; cited from earlier work
[14] = dose 0.03 mg/kg, after 18 weeks of administration

## CC1=C(/C=C/C(C)=C/C=C/C(C)=C/C(=O)O)C(C)(C)CCC1 [All-trans retinoic acid, all-trans-retinoic acid]
[1]
  polyclonal division of human B lymphocytes: inhibits
[2]
  polyclonal division of mouse B lymphocytes: inhibits
[3]; 0.1 and 1 nM all-trans-retinoic acid
  in vitro production of antibody in mice (in words): inhibited
[3]; all-trans retinoic acid 0.1 nM with Ro-41-5253 20 nM
  Total IgG: 9.8 ng/mL
[3]; all-trans retinoic acid 0.1 nM with Ro-41-5253 200 nM
  Total IgG: 26.4 ng/mL
[3]; all-trans retinoic acid 0.1 nM with Ro-41-5253 2000 nM
  Total IgG: 23.4 ng/mL
[3]; all-trans retinoic acid 0.1 nM, Ro-41-5253 0 nM
  Total IgG: 11.3 ng/mL
[3]; all-trans retinoic acid 1 nM with Ro-41-5253 20 nM
  Total IgG: 6.4 ng/mL
[3]; all-trans retinoic acid 1 nM with Ro-41-5253 200 nM
  Total IgG: 7.2 ng/mL
[3]; all-trans retinoic acid 1 nM with Ro-41-5253 2000 nM
  Total IgG: 21.5 ng/mL
[3]; all-trans retinoic acid 1 nM, Ro-41-5253 0 nM
  Total IgG: 7.3 ng/mL

## O=C(O)c1ccc(-c2ccc(-c3cc4c(C(F)(F)F)ccc(F)c4o3)[nH]2)cc1 [Compound B, 4-{2-[5-(7-fluoro-4-trifluoromethylbenzofuran-2-yl)pyrrolyl]}benzoic acid]
[4]
  Degree of Inhibition of Albuminuria (%): 90.7%
[5]
  inhibition of production of anti-ss DNA antibody (in words): significant inhibition
[6]
  effect on anti-DNP IgG2a: significantly inhibited
[7]
  effect on anti-rabbit γ-globulin IgG2a antibody titer: inhibited significantly
[8]; [14]
  onset of albuminuria (in words): complete inhibition
[8]; dose 0.03 mg/kg
  Number of animals with Concentration of Urine Protein (mg/ml) <0.3: 8
  Number of animals with Concentration of Urine Protein (mg/ml) >0.3: 0
  Number of animals with Concentration of Urine Protein (mg/ml) >1: 0
  Number of animals with Concentration of Urine Protein (mg/ml) >3: 0
  Number of animals with Concentration of Urine Protein (mg/ml) >10: 0

## CCCCCCCOc1cc2c(cc1/C(C)=C/c1ccc(C(=O)O)cc1)C(C)(C)CCS2(=O)=O [Ro-41-5253]
[9]
  recovery of the inhibitory action of retinoic acid on differentiation of mouse B lymphocytes: recovered almost perfectly
[3]; Ro-41-5253 20 nM, all-trans retinoic acid 0 nM
  Total IgG: 29.2 ng/mL
[3]; Ro-41-5253 200 nM, all-trans retinoic acid 0 nM
  Total IgG: 30.2 ng/mL
[3]; Ro-41-5253 2000 nM, all-trans retinoic acid 0 nM
  Total IgG: 18.0 ng/mL
[3]; adding 200 nM and 2000 nM Ro-41-5253
  recovery of the inhibitory action of all-trans-retinoic acid on antibody production (in words): completely recovered

## CC1=C(/C=C/C(C)=C/C=C/C(C)=C\C(=O)O)C(C)(C)CCC1 [13-cis-retinoic acid]
[10]
  neural symptoms of mouse allergic cerebrospinal meningitis: ameliorated
[11]
  secondary inflammations in rat adjuvant arthritis: significantly suppressed

## cyclosporin A [reference compound]
[5]; 50 mg/kg, examined in the same manner, significant
  inhibition of production of anti-ss DNA antibody: about 85%
[12]; 50 mg/kg, examined in the same manner
  inhibition of production of anti-ds DNA antibody (in words): did not inhibit
[8]; dose 50 mg/kg
  Number of animals with Concentration of Urine Protein (mg/ml) <0.3: 5
  Number of animals with Concentration of Urine Protein (mg/ml) >0.3: 1
  Number of animals with Concentration of Urine Protein (mg/ml) >1: 2
  Number of animals with Concentration of Urine Protein (mg/ml) >3: 0
  Number of animals with Concentration of Urine Protein (mg/ml) >10: 0
[8]; dose 50 mg/kg, not statistically significant
  onset of albuminuria (in words): showed inhibition

## CC1(C)CCC(C)(C)c2cc(NC(=O)c3ccc(C(=O)O)cc3)ccc21 [Am80]
[13]
  production of anti-collagen antibody titer in blood: strongly inhibited

## CC1=C(/C=C/C(C)=C/C=C/C(C)=C/C(=O)Nc2ccc(O)cc2)C(C)(C)CCC1
[10]
  neural symptoms of mouse allergic cerebrospinal meningitis: ameliorated

## Cc1ccc(C)c2oc(-c3ccc(-c4ccc(C(=O)O)cc4)[nH]3)cc12 [Compound A, 4-{2-[5-(4,7-dimethylbenzofuran-2-yl)pyrrolyl]}benzoic acid]
[4]
  Degree of Inhibition of Albuminuria (%): 69.2%
[5]
  inhibition of production of anti-ss DNA antibody (in words): significant inhibition
[7]
  effect on anti-rabbit γ-globulin IgG2a antibody titer: showed a tendency to inhibit
[12]; 0.03 mg/kg oral, after 16 weeks of administration
  inhibition of production of anti-ds DNA antibody (in words): significant inhibition
[8]; [14]
  onset of albuminuria (in words): inhibited
[8]; dose 0.03 mg/kg
  Number of animals with Concentration of Urine Protein (mg/ml) <0.3: 6
  Number of animals with Concentration of Urine Protein (mg/ml) >0.3: 0
  Number of animals with Concentration of Urine Protein (mg/ml) >1: 1
  Number of animals with Concentration of Urine Protein (mg/ml) >3: 1
  Number of animals with Concentration of Urine Protein (mg/ml) >10: 0
